Measured values taken from ChEMBL document CHEMBL1151083, “Synthesis & characterization of N-amino-glyphosate as a potent analog inhibitor of E. coli EPSP synthase” (Bioorg Med Chem Lett, 1993).

Tests used:
[1] = target: T1, 3-phosphoshikimate 1-carboxyvinyltransferase (Escherichia coli K-12) (UniProt P0A6D3)
T1 sequence (whole entry): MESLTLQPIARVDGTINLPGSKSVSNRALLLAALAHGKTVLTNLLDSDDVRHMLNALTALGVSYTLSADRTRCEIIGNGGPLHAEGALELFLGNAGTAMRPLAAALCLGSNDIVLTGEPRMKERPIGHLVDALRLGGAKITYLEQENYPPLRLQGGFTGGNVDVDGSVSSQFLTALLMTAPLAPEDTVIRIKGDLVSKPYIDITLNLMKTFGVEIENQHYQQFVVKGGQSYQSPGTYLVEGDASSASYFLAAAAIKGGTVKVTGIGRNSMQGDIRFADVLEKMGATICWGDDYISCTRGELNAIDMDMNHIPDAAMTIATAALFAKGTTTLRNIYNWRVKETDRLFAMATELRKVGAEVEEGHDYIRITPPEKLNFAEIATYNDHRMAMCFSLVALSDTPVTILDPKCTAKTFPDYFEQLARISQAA
Description: Tested for the rate of association against Escherichia coli 5-enolpyruvyl-shikimate-3-phosphate synthase

[2] = target: T1, 3-phosphoshikimate 1-carboxyvinyltransferase (Escherichia coli K-12); remark: listed apart in the source
Description: Tested for the dissociation rate against Escherichia coli 5-enolpyruvyl-shikimate-3-phosphate synthase

[3] = target: T2, 3-phosphoshikimate 1-carboxyvinyltransferase (Escherichia coli K-12, UniProt P0A6D3); assay: Tested for the inhibition against Escherichia coli 5-enolpyruvyl-shikimate-3-phosphate synthase versus phosphoenolpyruvate
T2 sequence (P0A6D3 whole entry): T1 sequence (whole entry)

[4] = target: T2, 3-phosphoshikimate 1-carboxyvinyltransferase; assay: Tested for the inhibition against Escherichia coli 5-enolpyruvyl-shikimate-3-phosphate synthase
[5] = target: T2, 3-phosphoshikimate 1-carboxyvinyltransferase; assay: Tested for the dissociation constant against Escherichia coli 5-enolpyruvyl-shikimate-3-phosphate synthase

Compound	Ki [3] [nM]	IC50 [4] [µM]	further results
O=C(O)CNCP(=O)(O)O	–	–	k on [1]: 780000 M⁻¹ s⁻¹; k off [2]: 0.12 s⁻¹
O=NN(CC(=O)O)CP(=O)(O)O	2200	–	–
CC(NCC(=O)O)P(=O)(O)O (stereo not given)	–	> 80	–
O=C(O)CNC[PH](=O)O	–	700	–
O=C(O)CN(O)CP(=O)(O)O	2200	–	–
NN(CC(=O)O)CP(=O)(O)O	610	–	Kd [5]: 500 nM; k on [1]: 320000 M⁻¹ s⁻¹; k off [2]: 0.16 s⁻¹
CC(NCP(=O)(O)O)C(=O)O (stereo not given)	–	> 80	–
CN(CC(=O)O)CP(=O)(O)O	78000	150	–
COC(=O)CNCP(=O)(O)O	–	> 1	–
NC(CC(=O)O)CP(=O)(O)O (stereo not given)	–	> 80	–
